Measured values: patent publication US9040553B2, “Phenoxyisobutyric acid compounds and method of synthesis” (CELL VIABLE CORPORATION, priority 2010, dated 2015)

Molecular target: BSA (Bos taurus, UniProt P02769)
Test: BSA glycation inhibition (glucose incubation, SDS gel/PVDF blot, periodic acid-Schiff staining)
Format: biochemical
Details: BSA incubated with glucose and compound at 37° C. for 5 weeks; periodic acid-Schiff base staining of blot
Method: Compound No. 1 was tested for glycation activity according to the following protocol:
BSA was incubated in the presence of glucose and Compound No. 1 at 37° C. for 5 weeks. Aliquots of 2 μg protein were run on an SDS gel and transferred to PVDF membrane—the same procedure as for a western blot. The membrane was then processed to identify glycoprotein content by the periodic acid-Schiff base method. The positive reaction is pink, and glycation also shifts the molecular weight so the band migrates more slowly down the gel (higher position on the blot). […] Amimoguanadine was used as a control Reduced staining is an indication of glycation inhibition.

BSA, sequence (P02769 25-607): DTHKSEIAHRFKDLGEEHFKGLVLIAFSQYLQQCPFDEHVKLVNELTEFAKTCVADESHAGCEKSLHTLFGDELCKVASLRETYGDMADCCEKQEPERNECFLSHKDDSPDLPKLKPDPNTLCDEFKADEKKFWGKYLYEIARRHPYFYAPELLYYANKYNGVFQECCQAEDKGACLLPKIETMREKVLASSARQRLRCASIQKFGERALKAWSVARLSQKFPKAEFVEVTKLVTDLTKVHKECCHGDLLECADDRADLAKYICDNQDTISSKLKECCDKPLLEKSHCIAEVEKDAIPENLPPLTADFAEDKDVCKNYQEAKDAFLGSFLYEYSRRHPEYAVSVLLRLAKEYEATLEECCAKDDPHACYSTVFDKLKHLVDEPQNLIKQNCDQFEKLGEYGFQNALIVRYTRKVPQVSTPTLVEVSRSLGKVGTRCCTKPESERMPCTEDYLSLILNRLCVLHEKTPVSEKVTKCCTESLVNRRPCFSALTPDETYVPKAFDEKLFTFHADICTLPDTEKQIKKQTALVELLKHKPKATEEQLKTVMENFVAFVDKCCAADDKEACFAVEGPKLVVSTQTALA

glycation inhibition (reduced glycoprotein staining): found to inhibit glycation
Substance: 3,3′-dichloro-1,1′-diphenyl-4,4′-diureidophenoxyisobutyric acid [Compound No. 1]
